# Source: patent publication US20100221823A1, “METHOD FOR CULTURING MAMMALIAN CELLS TO IMPROVE RECOMBINANT PROTEIN PRODUCTION” (Amgen Inc., priority 2007, published 2010)
# Key:
# [1] = test system: CHO cell line producing a recombinant IgG2 monoclonal antibody; assay: Batch culture in serum-free DMEM/F12 with supplemental polyamines: viable cell density and viability; assay type: cell-based, Chinese hamster; conditions: 3 days; for Culture viability versus cells without supplemental polyamines (FIG. 1b) / Viable cell density versus basal DMEM/F12 media (FIG. 1a): supplemental polyamine
# Description: To test the effect of high concentration polyamine media formulations on cell culture performance a CHO cell line producing a recombinant IgG2 monoclonal antibody was seeded at 2.5×10^5 cells/ml in serum-free DMEM/F12 (SAFC, Lenexa, Kans.). DMEM/F12 contains 503 nM putrescine as a component of the commercial formulation. […] Cells were maintained in suspension culture for three days at 36° C. in 5% CO2. Total cell density and viable cell density were measured using a Guava Easy-Cyte™ flow cytometer and Guava Viacount® Flex reagent (Hayward, Calif.) according to manufacture's instructions.
# Following three days culture in the polyamine-supplemented-DMEM/F12 media, viable cell density and culture viability were measured, see FIGS. 1a and 1b. Mean viability is presented as percent of viable cells and viable cell density is presented as number of cells/ml.
# [2] = test system: CHO cell line producing a recombinant IgG1 monoclonal antibody; conditions: fed-batch
# Description: The medium was an enriched formulation of DMEM/F12 that was less concentrated than the media used in Example 3. The medium already contained putrescine at 0.014 mM. […] Cells were maintained in suspension culture for 8 days at 36° C., 5% CO2. Cultures were fed a rich medium on the fourth day of culture. […] The feed volume was equal to seven percent of the initial batch culture volume. The feed medium contained putrescine and delivered 0.0019 mM putrescine to the cultures as a result of each feed. Glucose was also fed on the fourth day of culture in order to prevent depletion. Viable cell density and cell viability were measured as described above.
# Antibody titer was measured by immunoturbidimetric analysis using a Poly-Chem® analyzer and High Sensitivity IgG reagents (Polymedco, Cortlandt Manor, N.Y.) according to the manufacturer's instructions.
# [3] = test system: four different recombinant monoclonal IgG2 antibody-producing CHO cell lines; conditions: fed-batch, 10 μM spermine
# Description: The medium was an enriched formulation of DMEM/F12 medium (ingredients supplied by SAFC, Lenexa, Kans.). The medium contained putrescine at a concentration of 0.014 mM. […] Cells were maintained in suspension culture for 11 days at 36° C., 5% CO2. Cultures were fed an enriched feed medium on the fourth, seventh, and ninth days of culture. The feed volume was equal to nine percent of the initial batch culture volume. […] Glucose was also fed on the fourth, seventh, and ninth days of culture in order to prevent depletion. Viable cell density and cell viability were measured as described above.
# The titer of the antibodies produced in cell culture was determined using POROS® (Applied Biosystems) Protein A chromotagraphy HPLC chromotagraphy.
# [4] = test system: Human-human hybridoma HB4C5 cells; conditions: spermine 2.4 mM or higher; increased over the control; cited from earlier work
# [5] = test system: CHO cell line producing a recombinant IgG2 monoclonal antibody; conditions: 6 days, VM-Soy
# Description: VM-Soy basal media contains 0.98 μM (0.1620 mg/l) putrescine as a component of its formulation. […] Cells were seeded at 2.5×10^5 cells/ml and maintained for six days at 36° C. in 5% CO2. Viable cell density and cell viability were measured as described above.
# Antibody titer was measured by immunoturbidietric analysis using a Poly-Chem® analyzer and High Sensitivity IgG reagents (Polymedco, Cortlandt Manor, N.Y.) according to the manufacturer's instructions.
smiles,measurement,setting,value
"Cl.Cl.NCCCCN [putrescine, putrescine dihydrochloride]",Culture viability versus cells without supplemental polyamines (FIG. 1b),[1],higher
same,Viable cell density versus basal DMEM/F12 media (FIG. 1a),[1],higher
"NCCCCNCCCN [spermidine, spermidine tetrachdrochloride]",Culture viability versus cells without supplemental polyamines (FIG. 1b),[1],higher
same,Viable cell density versus basal DMEM/F12 media (FIG. 1a),[1],higher
"Cl.Cl.Cl.Cl.NCCCNCCCCNCCCN [spermine, spermine tetrahydrochloride]",Effect of spermine concentration on titer,[2]; 0.1-500 μM spermine,dose-dependent response
same,Viable cell density versus control (FIGS. 4a and 4b),"[2]; 8 days, 0.1-500 μM spermine",greater
same,Antibody titer increase compared to the untreated controls (FIG. 4d),"[2]; Day 8, 0.1-500 μM spermine",7-17%
same,Ending cell viability (FIG. 4c),"[2]; Day 8, 5-50 μM spermine",increased
same,Antibody titer increase compared to the untreated controls (FIG. 3c),[3]; range over four cell lines,7-17%
same,Cell viability versus control without spermine (FIG. 3b),[3]; 11 days,largely unaffected
same,Viable cell density versus control without spermine (FIG. 3a),[3]; 11 days,greater
same,Spermine concentration giving the greatest increase in cell viability (FIG. 1b),[1]; DMEM/F12,50 µM
same,Cell viability increase compared to unsupplemented control media,"[1]; DMEM/F12, 10-50 μM spermine",up to 20%
same,Viable cell density increase compared to unsupplemented control media,"[1]; DMEM/F12, 10-50 μM spermine",up to 49%
same,Culture viability versus cells without supplemental polyamines (FIG. 1b),[1],higher
same,Viable cell density versus basal DMEM/F12 media (FIG. 1a),[1],higher
same,Protein production,[4],less than 1 mg/l
same,Spermine concentration giving the greatest increase in antibody concentration (FIG. 2c),[5],50 µM
same,Spermine concentration giving the greatest increase in viable cell density (FIG. 2a),[5],50 µM
same,Antibody titer increase (greatest),[5]; 50 μM spermine,9%
same,Cell viability increase (greatest),[5]; 50 μM spermine,29%
same,Viable cell density increase (greatest),[5]; 50 μM spermine,23%
same,Antibody titer increase compared to the untreated control,[5]; 10-200 μM spermine,5-9%
same,Cell viability increase compared to the unsupplemented control,[5]; 10-200 μM spermine,22-29%
same,Viable cell density increase compared to the unsupplemented control,[5]; 10-200 μM spermine,8-23%
